Data published in patent US12303501B2, “Lipophilic active oral film formulation and method of making the same” (INTELGENX CORP., priority 2018, dated 2025).

Test: viscosity of aqueous glycerol solutions (DV1 Viscometer)
Type: physicochemical
Conditions: room temperature (23.5° C.), SC4-21 spindle
Description: Specifically, larger differences in the viscosity between the oil and the aqueous phases will hinder the emulsion formation and promote phase separation. The formulations disclosed herein thus preferably include viscosity modifying agents to increase the viscosity of the aqueous phase and improve the emulsion stability by diminishing the rise of the oil droplets to the surface. Table 3 contain examples of increasing the viscosity of an aqueous solution using glycerol/glycerine. Viscosity modifiers are added to the aqueous phase to increase the viscosity in and attempt to mitigate the difference in viscosity between the oil phase and the aqueous phases and thus promote emulsion stability.

Viscosity: 905.0 cP
SMILES: OCC(O)CO [100%, glycerol]
